Values after ≈ are worked out from the molar mass of the structure shown. Read-outs that look alike come from different tables or passages of the source.
Key:
[1] = tested on: P. asymbiotica subsp. australis cells; assay: Cell aggregation (cross-linking) assay; assay type: cell-based, Photorhabdus asymbiotica subsp. australis; conditions: three independent measurements
Excerpt: Because of the aggregation of PHL by calixarenes and dendrimers during SPR and ITC experiments, we decided to compare tetravalent compounds at a higher level. We performed a series of in vitro aggregation assays to reveal their aggregation properties towards P. asymbiotica subsp. australis (Table 4, Fig. 5). Prior to each assay, we confirmed the absence of aggregates in two negative controls – bacterial cells in PBS buffer and in the presence of azide 1 as a monomer. With all chosen compounds, we observed bacterial aggregates of a variable size that confirmed that they are capable of interacting with a cell surface. This effect may be caused by interaction of the multivalent inhibitors with PHL or other receptors. The concentration of the first appearance of aggregates varied according to the nature of the ligand used. […] An unexpected observation was that calixarene 7 had the lowest aggregation potential. In contrast to other techniques (hemagglutination, SPR and ITC), where calixarenes 6 and 7 provided similar results, during cross-linking experiments calixarene 7 was four times worse than calixarene 6. At the same time, both tetrameric calixarenes 6 and 7 are in a 1,3-alternate conformation with the two-faced presentation of the fucopyranosyl epitopes on opposite regions probably occupying a similar spatial orientation. The only difference is the tert-Bu group on the upper rim in calixarene 6, which might contribute to nonpolar interactions with whole P. asymbiotica cells.
P. asymbiotica subsp. australis was inoculated from stock cells stored at −80 °C into a standard LB media and were grown in 30 °C under an orbital shaking overnight. Bacterial growth was tracked by measuring the optical density of the broth at 600 nm (OD600) using a spectrophotometer (Biochrom Ltd., BioPhotometer WGA CO 8000 Biowave). Cells were harvested when reaching an OD600 = 0.5. The culture was centrifuged at 4,300 g and room temperature for 2 minutes (Minispin, Eppendorf, Germany) and cells were then washed three times with PBS buffer. Cells were diluted in PBS to OD600 of 2.0 and kept in a fridge until performing the aggregation assay.
P. asymbiotica subsp. australis cells and fucosylated compounds in a concentration ranging from 50 mM to 3.125 mM were gently mixed in a 9:1 (v/v) ratio. The reaction mixtures were left at room temperature for 10 minutes. 5 µl of reaction mixture was then transferred onto a microscope slide and observed under a fluorescence microscope (OLYMPUS IX81 Microscope IX81F-3 with IX2-UCB-2 Controller and X-Cite 120PC Q; Olympus and Excelitas Technologies, Japan, resp. USA). As a negative control, bacterial cells with/without azide 1 as a monomer were used. Three independent measurements were performed.

PHL [2] = biological target: T1, PHL (Photorhabdus asymbiotica, UniProt C7BLE4); assay: Hemagglutination inhibition assay with PHL (papain-treated human RBCs O); assay type: cell-based; conditions: for MIC (minimal inhibitory concentration, hemagglutination by PHL): RBC O, two independent measurements; for PotencyL-Fuc: MIC L-fucose / MIC ligand; for β L-Fuc (affinity improvement factor): MICbasic unit/(valency × MICligand), basic unit L-Fuc
T1 sequence (C7BLE4 entry or part of it): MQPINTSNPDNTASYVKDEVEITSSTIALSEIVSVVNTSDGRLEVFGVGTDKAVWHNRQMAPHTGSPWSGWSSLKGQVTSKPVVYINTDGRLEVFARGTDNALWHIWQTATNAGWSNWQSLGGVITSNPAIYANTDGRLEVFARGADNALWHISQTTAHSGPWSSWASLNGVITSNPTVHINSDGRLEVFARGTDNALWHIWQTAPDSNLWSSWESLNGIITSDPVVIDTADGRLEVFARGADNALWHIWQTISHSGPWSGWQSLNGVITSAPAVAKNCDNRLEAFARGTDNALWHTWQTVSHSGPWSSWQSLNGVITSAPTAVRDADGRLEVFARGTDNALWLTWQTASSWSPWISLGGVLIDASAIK
Procedure: The set of potential ligands 1–10 with different levels of fucosylation was tested, and their inhibition potency on hemagglutination by PHL was assessed (Table 1, Fig. 2). […] To assess the contribution of valency to the affinity increase, an affinity improvement factor β was calculated as the relationship MICbasic unit/(valency × MICligand).
Human red blood cells (RBCs) O were processed according to previously published work[16]. In brief, RBCs O treated with sodium citrate were washed four times by PBS buffer (137 mM NaCl, 2.7 mM KCl, 8 mM Na2HPO4, 1.47 mM KH2PO4, pH 7.4), diluted to 50% by PBS with 0.005% (w/w) sodium azide and treated by 0.1% papain for the duration of 30 minutes.
Hemagglutination inhibition assay was performed for specificity and semi-quantitative affinity of the PHL interaction with the compounds. All carbohydrate inhibitors in 50 mM starting concentration were serially diluted in the PBS buffer and used for a determination of the lowest inhibiting concentration. As a blank, the PBS buffer supplemented with the appropriate amount of DMSO was used in order to exclude potential interference with the interaction. The individual samples were mixed with the lectin in concentration 2 mg/ml in a 5 μl:5 μl ratio. Thereafter, 10 μl of 10% RBCs O in PBS buffer was added, thoroughly mixed and incubated for 10 minutes at room temperature. Following incubation, the mixture was again mixed and the reaction was observed on microscope slides using Levenhuk 2L NG microscope with Levenhuk D2L digital camera (Levenhuk, USA). Imagines were obtained via software ToupView for Windows (Levenhuk). The positive (PHL without inhibitor) and negative control (reaction without PHL) were prepared and processed in the same way using the appropriate volume of PBS buffer instead of the not included components. The lowest concentration of inhibitor able to inhibit agglutination was determined and compared with the standard (L-fucose). Minimal inhibitory concentrations (MIC) of synthesised inhibitors were determined from two independent measurements.

PHL [3] = biological target: T1, PHL; assay: SPR competitive inhibition of PHL binding to α-L-fucoside sensor chip; conditions: for IC50: 25 °C, three independent measurements; for β L-Fuc (affinity improvement factor): IC50,basic unit/(valency × IC50,ligand), basic unit L-Fuc; for PotencyL-Fuc: IC50 L-fucose / IC50 ligand
Procedure: To analyse the competitive inhibition of PHL binding to a multivalent surface, the surface plasmon resonance (SPR) technique was employed. A sensor chip presenting α-L-fucopyranoside residues was treated with a constant concentration of PHL, while an increasing concentration of the ligands was used to determine IC50 (Table 2, Fig. 3). […] To assess the contribution of valency to the affinity increase, an affinity improvement factor β was calculated as the relationship IC50,basic unit/(valency × IC50,ligand)[30].
Surface plasmon resonance (SPR) experiments were performed on a BIAcore T200 instrument (GE Healthcare, UK) at 25 °C, using buffer A supplemented with 0.05% Tween 20 as a running buffer. α-L-fucoside was immobilized onto CM5 sensor chip (GE Healthcare, UK) covered with a carboxymethylated dextran matrix. The sensor chip surface was activated with N-ethyl-N-(3-dimethylaminopropyl)carbodiimide/N-hydroxysuccinimide solution and then coated with streptavidin using the manufacturer’s standard protocol using HBS buffer (10 mM HEPES, 150 mM NaCl, 0.05% Tween 20, pH 7. 5). Unreacted groups were blocked with 1 M ethanolamine-HCl, pH 8.5. Biotinylated carbohydrate (biotinilated monomeric probes, Lectinity, Russia) was injected onto particular measuring channel and pure biotin on blank channel at a flow rate of 5 μl/min.
SPR inhibition measurements were carried out on measuring channel with L-fucoside at a flow rate of 5 µl/min. PHL was diluted to a concentration of 20 μg/ml by the buffer A supplemented with 0.05% Tween 20, mixed 1:1 (v/v) with various concentrations of inhibitors (500–5 μM) in the same buffer and injected onto the sensor chip. The response of lectin bound to the sugar surface at equilibrium was plotted against the concentration of inhibitor in order to determine IC50 (concentration of inhibitor resulting in 50% inhibition of binding). As IC50 is not a constant and depends on the experimental set-up, a parameter called potency was used for characterization. The potency of a tested inhibitor is the ratio of IC50 of a chosen standard inhibitor (in this case L-fucose) and the inhibitor in question. Pure PHL lectin was used as a control (0% inhibition) and channel with pure biotin served as a blank. IC50 was determined from triplicates.

PHL [4] = biological target: T1, PHL; design: method as in PMID 28806750; conditions: SPR competition assay, earlier work; cited from earlier work
PHL [5] = biological target: T1, PHL; assay: Isothermal titration calorimetry of PHL with ligands; assay type: binding
Excerpt: The binding of PHL to different α-L-fucoside compounds was further characterized by isothermal titration calorimetry (ITC), enabling determination of the complete thermodynamic profile of the molecular interactions (Table 3, Fig. 4). […] Because of this, it was not possible to evaluate the data, despite the obvious interaction. The dendrimers also cross-linked/aggregated the protein as with calixarenes, however the curves provided clear outcomes with an affinity in the low micromolar range. The dissociation constants (KD) of all dendrimers correlate with their valency – the higher number of fucose, the more decreased KD. […] The stoichiometry value n corresponds to the number of terminal fucoses per ligand molecule. The n value decreases from 4 to 1 as the number of fucose units increases from 1 to 12 (Table 3).
PHL protein in buffer A was equilibrated at room temperature at least for 30 min before ITC measurement. All ITC experiments were performed using ITC200 calorimeter (Malvern Panalytical, UK) at 25 °C. Carbohydrate ligands dissolved in buffer A were used at different concentrations. Protein in the calorimeter cell (50 μM) was titrated by consecutive additions (2 μl) of the ligand (1.5–5 mM) in the syringe while stirring at 1000 rpm. Integrated heat effects were analysed by nonlinear regression using a single-site binding model and global fitting in Origin 7 software (Microcal Instruments)[37]. The thermodynamic parameters of synthesised inhibitors were determined from two independent measurements.

SMILES | The lowest concentration able to aggregate P. asymbiotica cells [1] [mM] | MIC (minimal inhibitory concentration, hemagglutination by PHL) (PHL [2]) [µM] | PotencyL-Fuc (PHL [2]; hemagglutination) | β L-Fuc (affinity improvement factor) (PHL [2]; hemagglutination) | β Azide1 (affinity improvement factor) (PHL [2]; hemagglutination, basic unit azide 1) | PotencyAzide1 (PHL [2]; hemagglutination, relative to azide 1) | IC50 (PHL [3]) [µM] | β L-Fuc (affinity improvement factor) (PHL [3]) | PotencyL-Fuc (PHL [3]) | β Azide1 (affinity improvement factor) (PHL [3]; basic unit azide 1) | PotencyAzide1 (PHL [3]; relative to azide 1) | IC50 (PHL [4]) [µM] | fold stronger ligand than free L-fucose (PHL [4]) [fold] | Kd (PHL [5]; ITC at 25 °C) [µM] | −TΔS (PHL [5]; ITC at 25 °C) [kcal/mol] | −ΔG (PHL [5]; ITC at 25 °C) [kcal/mol] | −ΔH (PHL [5]; ITC at 25 °C) [kcal/mol] | n (stoichiometry) (PHL [5]; ITC at 25 °C, two independent measurements) | Potency L-Fuc (PHL [5]; ITC, KD L-fucose / KD ligand) | β L-Fuc (affinity improvement factor) (PHL [5]; ITC, KD,basic unit/(valency × KD,ligand), basic unit L-Fuc)
C[C@@H]1O[C@@H](CCn2cc(COc3c4cccc3Cc3cccc(c3OCc3cn(CC[C@@H]5O[C@@H](C)[C@@H](O)[C@@H](O)[C@@H]5O)nn3)Cc3cccc(c3OCc3cn(CC[C@@H]5O[C@@H](C)[C@@H](O)[C@@H](O)[C@@H]5O)nn3)Cc3cccc(c3OCc3cn(CC[C@@H]5O[C@@H](C)[C@@H](O)[C@@H](O)[C@@H]5O)nn3)C4)nn2)[C@@H](O)[C@H](O)[C@@H]1O [Calixarene 7] | 5 | 100 (≈ 145 µg/mL) | 31.3 | 7.8 | 0.5 | 2 | 0.178 ± 0.02 | 508 | 2,029 | approximately 15 | 61 | – | – | – | – | – | – | – | – | –
CO[C@@H]1O[C@@H](C)[C@@H](O)[C@@H](O)[C@@H]1O [α-Me-Fuc, methyl α-L-fucopyranoside, reference compound] | – | 400 (≈ 71.3 µg/mL) | 7.8 | 7.8 | – | – | 38.5 ± 1.2 | 9 | 9 | – | – | 40 | ~10 | 267 ± 11 | 9.23 ± 1.03 | 4.88 ± 0.22 | 14.1 ± 1 | 2.9 ± 0.2 | 5 | 5

Reference: publication PMC6797808, “Fucosylated inhibitors of recently identified bangle lectin from Photorhabdus asymbiotica” (Scientific Reports, 2019)
